We go through 24 compounds from US11603349B2, “Anti-fibrotic compounds” (Certa Therapeutics Pty Ltd, priority 2017, dated 2023).

Structures can show the parent of a compound that is named as a salt. Some results are limits rather than exact numbers.

In series [1] the test system is TGF-β induced [14C]-proline incorporation in rat mesangial cells. The series is described as follows: [14C]-proline incorporation assay (collagen biosynthesis). It is filed as cell-based. The following applies: inhibition of TGF-β1 (1 ng/ml) induced [14C]-proline incorporation, IRMC cells.
A short description of series [2]: MTS tetrazolium reduction cell viability assay. The following applies: rat, rat mesangial cells (1097/IRMC cells), TGF-β1 stimulated, CC50 (μM), vs 1% DMSO vehicle. (In general: Formazan colour is commonly taken as a measure of viable cells.)
Setting [3] is: Rattus norvegicus, Mesangial cell, 44 h.

In general, IC50 refers to the concentration needed to halve the response being measured. Read a high IC50 as a need for much substance. Usually CC50 stands for the concentration at which the toxic effect on the cells reaches its halfway point. Low values mean harm at low concentration, high ones better tolerance by the cells. Turning to `C#CCOc1ccc(/C=C/C(=O)Nc2ccccc2C(=O)NCc2ccncc2)cc1OC` [Example 45, (E)-2-(3-(3-methoxy-4-(prop-2-yn-1-yloxy)phenyl)acrylamido)-N-(pyridin-4-ylmethyl)benzamide], inhibition in series [1] (setting [3]) was half-maximal at 12.9 µM (IC50). This compound also yielded a CC50 at 48 h in series [2] of 307 µM.

As for `COc1cc(/C=C/C(=O)Nc2ccccc2C(=O)O)ccc1OCc1cnn(C)c1` [Example 53, (E)-2-(3-(3-methoxy-4-((1-methyl-1H-pyrazol-4-yl)methoxy)phenyl)acrylamido)benzoic acid], inhibition in series [1] (setting [3]) was half-maximal at 15 µM (IC50). The CC50 at 48 h in series [2] is 226 µM.

Regarding `C#CCOc1ccc(/C=C/C(=O)Nc2ccccc2C#N)c(OC2CCN(C)C2)c1OC` (stereo not shown) [Example 81, (E)-N-(2-cyanophenyl)-3-[3-methoxy-2-(1-methylpyrrolidin-3-yl)oxy-4-prop-2-ynoxy-phenyl]prop-2-enamide], the IC50 in series [1] (setting [3]) was 7.15 µM. In series [2], this compound yielded a CC50 at 48 h of 24.9 µM.

In series [1] (setting [3]), `COc1cc(/C=C/C(=O)Nc2ccccc2C(=O)O)ccc1OCc1ccncc1` [Example 58, (E)-2-(3-(3-methoxy-4-(pyridin-4-ylmethoxy)phenyl)acrylamido)benzoic acid] registered an IC50 of 39.2 µM. In series [2], the midpoint of cytotoxicity, the CC50 at 48 h, lay at 266 µM.

`COc1cc(/C=C/C(=O)Nc2cccc(Cl)c2)ccc1OCC1COC1` [Example 147, (E)-N-(3-chlorophenyl)-3-(3-methoxy-4-(oxetan-3-ylmethoxy)phenyl)acrylamide]: the IC50 in series [1] (setting [3]) turned out to be 39.1 µM. The CC50 at 48 h in series [2] is over 300 µM.

Turning to `C#CCOc1ccc(/C=C/C(=O)Nc2ccccc2C(=O)O)cc1OC` [FT011, (E)-2-(3-(3-methoxy-4-(prop-2-yn-1-yloxy)phenyl)acrylamido)benzoic acid, reference compound], the half-inhibitory concentration (IC50) in series [1] (setting [3]) amounted to 17 µM; in series [1] (44 hours), 16 µM. The same compound came in with a CC50 at 48 h in series [2] of 119 µM.

In the case of `C#CCOc1ccc(/C=C/C(=O)Nc2ccccc2C(=O)NCCc2ccccn2)cc1OC` [Example 42, (E)-2-(3-(3-methoxy-4-(prop-2-yn-1-yloxy)phenyl)acrylamido)-N-(2-(pyridin-2-yl)ethyl)benzamide], half-maximal inhibition in series [1] (setting [3]) (IC50) required 17 µM. Moreover, the midpoint of cytotoxicity in series [2], the CC50 at 48 h, lay at 52 µM.

As for `O=C(/C=C/c1ccc2c(c1)NC(=O)CO2)Nc1ccccc1C(=O)O` [Example 111, (E)-2-(3-(3-oxo-3,4-dihydro-2H-benzo[b][1,4]oxazin-6-yl)acrylamido)benzoic acid], in series [1] (setting [3]), the IC50 worked out at 30 µM. In series [2], this compound returned a CC50 at 48 h of over 300 µM.

Consider `COc1ccc(/C=C/C(=O)Nc2ccc(C#N)cc2)c(OCCN(C)C)c1OC` [Example 129, (E)-N-(4-cyanophenyl)-3-(2-(2-(dimethylamino)ethoxy)-3,4-dimethoxyphenyl)acrylamide trifluoroacetic acid salt], for which, in series [1] (setting [3]), the IC50 stood at 12.3 µM. In series [2], this compound returned a CC50 at 48 h of 28.9 µM.

`COc1ccc(/C=C/C(=O)Nc2ccccc2Cl)cc1OCc1cnn(C)c1` [Example 159, (E)-N-(2-chlorophenyl)-3-(4-methoxy-3-((1-methyl-1H-pyrazol-4-yl)methoxy)phenyl)acrylamide] came in with an IC50 in series [1] (setting [3]) of 2.43 µM. The cytotoxic concentration (CC50) at 48 h in series [2] was over 10 µM.

Consider `COc1cc(/C=C/C(=O)Nc2ccccc2C(=O)O)ccc1N1CCOCC1` [Example 103, (E)-2-(3-(3-methoxy-4-morpholinophenyl)acrylamido)benzoic acid trifluoroacetic acid salt], for which, in series [1] (setting [3]), the IC50 stood at 28 µM. In series [2], this compound displayed a CC50 at 48 h of 265 µM.

In series [1] (setting [3]), `COc1ccc(/C=C/C(=O)Nc2ccc(F)cc2)c(OCCN(C)C)c1OC` [Example 128, (E)-3-(2-(2-(dimethylamino)ethoxy)-3,4-dimethoxyphenyl)-N-(4-fluorophenyl)acrylamide trifluoroacetic acid salt] had an IC50 of 11.5 µM. For the same compound, in series [2], the CC50 at 48 h was found to be 24.4 µM.

`C#CCOc1ccc(/C=C/C(=O)Nc2ccccc2-c2nn[nH]n2)cc1OC` [Example 16, (E)-N-(2-(2H-tetrazol-5-yl)phenyl)-3-(3-methoxy-4-(prop-2-yn-1-yloxy)phenyl)acrylamide] gave an IC50 in series [1] (setting [3]) of 22.3 µM. Further, in series [2], the CC50 at 48 h is 107 µM.

In the case of `COc1ccc(/C=C/C(=O)Nc2ccccc2C(=O)O)cc1CC1CC1` [Example 106, (E)-2-(3-(3-(cyclopropylmethyl)-4-methoxyphenyl)acrylamido)benzoic acid], the IC50 in series [1] (setting [3]) was determined as 1.58 µM. The compound further came in with a CC50 at 48 h in series [2] of 25.1 µM.

With `C#CCOc1c(/C=C/C(=O)Nc2ccccc2C(=O)O)ccc(OC)c1OC` [Example 95, (E)-2-(3-(3,4-dimethoxy-2-(prop-2-yn-1-yloxy)phenyl)acrylamido)benzoic Acid], in series [1] (setting [3]), 17.6 µM corresponded to half-maximal inhibition (IC50). Moreover, the midpoint of cytotoxicity in series [2], the CC50 at 48 h, lay at 111 µM.

In turn, `COc1ccc(/C=C/C(=O)Nc2ccccc2F)c(OCCN(C)C)c1OC` [Example 127, (E)-3-(2-(2-(dimethylamino)ethoxy)-3,4-dimethoxyphenyl)-N-(2-fluorophenyl)acrylamide] displayed an IC50 in series [1] (setting [3]) of 35.4 µM. In series [2], this compound returned a 50% cytotoxic concentration (CC50) at 48 h of 82.9 µM.

The compound `COc1cc(/C=C/C(=O)Nc2ccccc2F)ccc1OC1CCN(C)C1` (stereo not shown) [Example 130, (E)-N-(2-fluorophenyl)-3-(3-methoxy-4-((1-methylpyrrolidin-3-yl)oxy)phenyl)acrylamide] displayed an IC50 in series [1] (setting [3]) of 15.6 µM. Moreover, the cytotoxic concentration (CC50) at 48 h in series [2] turned out to be 51.8 µM.

Compound `C#CCOc1ccc(/C=C/C(=O)Nc2ccccc2C(=O)NCC2CCOC2)cc1OC` (stereo not shown) [Example 39, (E)-2-(3-(3-methoxy-4-(prop-2-yn-1-yloxy)phenyl)acrylamido)-N-((tetrahydrofuran-3-yl)methyl)benzamide] came in with an IC50 in series [1] (setting [3]) of 48.3 µM. For the same compound, the CC50 at 48 h in series [2] turned out to be 85.8 µM.

Take `COCCOc1cc(/C=C/C(=O)Nc2ccccc2C(=O)O)ccc1OC` [Example 61, (E)-2-(3-(4-methoxy-3-(2-methoxyethoxy)phenyl)acrylamido)benzoic acid]: the IC50 in series [1] (setting [3]) was determined as 48.9 µM. For the same compound, half-maximal cytotoxicity in series [2] (CC50 at 48 h) was put at 276 µM.

With `COc1cc(/C=C/C(=O)Nc2ccc(C#N)cc2)ccc1OC1CCN(C)C1` (stereo not shown) [Example 131, (E)-N-(4-cyanophenyl)-3-(3-methoxy-4-((1-methylpyrrolidin-3-yl)oxy)phenyl)acrylamide trifluoroacetic acid salt], the IC50 in series [1] (setting [3]) is 21.6 µM. This compound also yielded a CC50 at 48 h in series [2] of 17.7 µM.

With `COc1ccc(/C=C/C(=O)Nc2ccccc2C(=O)O)cc1COC1CCN(C)CC1` [Example 70, (E)-2-(3-(4-methoxy-3-(((1-methylpiperidin-4-yl)oxy)methyl)phenyl)acrylamido)benzoic acid], inhibition in series [1] (setting [3]) was half-maximal at 49.8 µM (IC50). The same compound came in with a CC50 at 48 h in series [2] of over 300 µM.

In the case of `COc1cc(/C=C/C(=O)Nc2ccccc2C(=O)O)ccc1OCc1c(C)noc1C` [Example 52, (E)-2-(3-(4-((3,5-dimethylisoxazol-4-yl)methoxy)-3-methoxyphenyl)acrylamido)benzoic acid], half-maximal inhibition in series [1] (setting [3]) (IC50) required 11.3 µM. Moreover, half-maximal cytotoxicity in series [2] (CC50 at 48 h) was put at 140 µM.

In series [1] (setting [3]), `COc1cccc(/C=C/C(=O)Nc2cccc(C#N)c2)c1OCCN(C)C` [Example 91, (E)-N-(3-cyanophenyl)-3-(2-(2-(dimethylamino)ethoxy)-3-methoxyphenyl)acrylamide] had an IC50 of 8.38 µM. This compound displayed a CC50 at 48 h in series [2] of 18.1 µM.

For `C#CCOc1ccc(/C=C/C(=O)Nc2ccccc2C(=O)Nc2cnn(C)c2)cc1OC` [Example 47, (E)-2-(3-(3-methoxy-4-(prop-2-yn-1-yloxy)phenyl)acrylamido)-N-(1-methyl-1H-pyrazol-4-yl)benzamide], in series [1] (setting [3]), the IC50 worked out at 29.1 µM. Also, in series [2], the cytotoxic concentration (CC50) at 48 h is over 300 µM.
